The values below come from publication PMC12344683, “N-alkyl and N-benzyl indoles are anti-SARS-CoV-2 agents and nsp13 inhibitors” (Journal of Enzyme Inhibition and Medicinal Chemistry, 2025).

By IC50 is commonly meant the concentration that inhibits the measured activity by half. What is called EC50 is the midpoint of the concentration-response curve.

Data set [1] addresses T1, SARS-CoV-2 nsp13 (Severe acute respiratory syndrome coronavirus 2, UniProt P0DTD1). As to the kind of experiment: SARS-CoV-2 nsp13 unwinding-associated activity (fluorescence, BSA-TCEP). The settings on record: for IC50: SARS-CoV-2 nsp13-associated unwinding activity, from dose-response curves. The format is biochemical.
For data set [2], the target named is T1, SARS-CoV-2 nsp13. As to the kind of experiment: SARS-CoV-2 nsp13 ATPase-associated activity (Biomol Green, BSA-TCEP). The note with it: for IC50: SARS-CoV-2 nsp13-associated ATPase activity, from dose-response curves. The format is biochemical.
Data set [3] can be described thus: Cellular toxicity assay (GFP signal as viability). The settings on record: African green monkey; Vero cells; read-out: CC50, concentration required to reduce Vero cells viability by 50%. The format is cell-based. Here is the method: Vero E6-green fluorescent protein (GFP) cells (Janssen Pharmaceutical were maintained in Dulbecco’s modified Eagle’s medium (DMEM, Gibco) supplemented with 10% v/v foetal beef serum (FBS, Gibco), 0.075% Sodium Bicarbonate (7.5% solution, Gibco) and 1X Pen-strep (Euroclone) and kept under 5% CO2 on 37 ◦C. The cells were seeded at 10 000 cells/well in 96-well black cell-treated plates (PerkinElmer). The following day, cells were incubated with the control compounds at different concentrations. Compound was dissolved in 0.1% DMSO. Seventy-two hours post infection the GPF signal, as direct index of cellular viability, was quantified by measuring the total-well fluorescence with a Victor 3 multiplate reader (PerkinElmer) set to excitation and emission wavelengths of 485 and 535 nm, respectively.
The percentage of induced cytopathic effects (CPE) was calculated considering the mock as 100% of cell viability, and the readout from empty wells as blank. The compound half-maximal cytopathic concentration (CC50), was determined via non-linear regression by using on Prism 9 v. 9.4.1 software (GraphPad) the built-in function dose-response inhibition, log-concentration-normalized response. Experimental points represent the average and standard deviation of at least two sets of independent triplicates.

Data set [4] concerns the target T1, SARS-CoV-2 nsp13. As to the kind of experiment: Incubation-dependent potency of 5c on nsp13 (inhibition type). The format is biochemical. The settings on record: for IC50: read-out: IC50 at time-point.
Data set [5] deals with T1, SARS-CoV-2 nsp13. The settings on record: cited from earlier work.
A further data set deals with SARS-CoV-2. The settings on record: cited from earlier work.
The subject of a further data set is MERS-CoV. The note with it: cited from earlier work.
The test system of a further data set is Vero E6-GFP cells. The note with it: cited from earlier work.
The next data set concerns HCoV229E. Also on record: method as in PMID 37562607. The settings on record: cited from earlier work.
Data set [6] addresses T1, SARS-CoV-2 nsp13. The settings on record: SARS-CoV-2 nsp13-associated ATPase activity; cited from earlier work.
The mark [7] stands for this setting: read-out: Activity in enzyme assay IC50 Unwinding BSA-TCEP.
[8] abbreviates: read-out: Activity in enzyme assay IC50 ATPase BSA-TCEP.
Where [9] appears, read: read-out: EC50 antiviral activity.
[10] abbreviates: SARS-CoV-2 nsp13-associated unwinding activity, read-out: IC50 unwinding.
The mark [11] stands for this setting: SARS-CoV-2 infected cells, read-out: EC50 SARS-CoV-2 replication.

Like-named read-outs stand apart in the source and are kept apart here. A value given as a limit tells only on which side of the number the result lay.

Regarding `CC(C)c1ccc(Cn2cc(/C=C/C(=O)/C=C(\O)C(=O)O)c3ccccc32)cc1` [5c], the IC50 on SARS-CoV-2 nsp13 [1] (setting [7]) was determined as 4.73 ± 0.5 µM; on SARS-CoV-2 nsp13 [2] (setting [8]) it was 1.8 ± 0.19 µM; at SARS-CoV-2 nsp13 [4] (1 min after activation of the reaction with the substrate), 0.76 µM; on SARS-CoV-2 nsp13 [4] (5 min after activation of the reaction with the substrate), 1.64 µM; at SARS-CoV-2 nsp13 [4] (10 min after activation of the reaction with the substrate) it was 2.75 µM; at SARS-CoV-2 nsp13 [4] (15 min after activation of the reaction with the substrate), 2.94 µM. Also, the IC50 on SARS-CoV-2 nsp13 [4] (20 min after activation of the reaction with the substrate) came to 2.76 µM. Besides, the “higher ATPase inhibition in respect to 4” value at SARS-CoV-2 nsp13 [2] (ratio of IC50 values) worked out at 7 fold. For the same molecule, the CC50 at 72 h in data set [3] is over 100 µM. At SARS-CoV-2 nsp13 [4] (from time-increased IC50 values), the “nature of the inhibition” value is “non-covalent/reversible”. The “effect of extended pre-incubation of compound and enzyme on inhibitory potency” value on SARS-CoV-2 nsp13 [4] (pre-incubation extended to +20 min and +50 min at RT) is “did not lead to an increase of the inhibitory potency”.
On to `O=C(/C=C(\O)C(=O)O)/C=C/c1cn(Cc2ccc(OC(F)(F)F)cc2)c2ccccc12` [5e], for which the IC50 was determined as 6.24 ± 0.24 µM at SARS-CoV-2 nsp13 [1] (setting [7]) and 6.41 ± 0.05 µM at SARS-CoV-2 nsp13 [2] (setting [8]). Besides, in [3], the CC50 at 72 h is over 100 µM.
Turning to `N#Cc1ccc(Cn2cc(/C=C/C(=O)/C=C(\O)C(=O)O)c3ccccc32)cc1` [5g, (2Z,5E)-6-(1-(4-cyanobenzyl)-1H-indol-3-yl)-2-hydroxy-4-oxohexa-2,5-dienoic acid], the results for the IC50 on SARS-CoV-2 nsp13 [1] (setting [7]) and at SARS-CoV-2 nsp13 [2] (setting [8]) were 2.08 ± 0.04 µM and 1.91 ± 0.31 µM, respectively. In data set [3], the CC50 at 72 h is over 100 µM.
Regarding `O=C(/C=C(\O)C(=O)O)/C=C/c1cn(Cc2ccc(F)cc2)c2ccc(Cl)cc12` [5i, (2Z,5E)-6-(5-chloro-1-(4-fluorobenzyl)-1H-indol-3-yl)-2-hydroxy-4-oxohexa-2,5-dienoic acid], the “selectivity for unwinding over ATPase” value on SARS-CoV-2 nsp13 [1] (IC50 unwinding vs IC50 ATPase) is on record as 2 order of magnitude. Moreover, the half-maximal inhibitory concentration (IC50) on SARS-CoV-2 nsp13 [1] (setting [7]) worked out at 0.47 ± 0.01 µM; at SARS-CoV-2 nsp13 [2] (setting [8]), 26.3 ± 2.52 µM. Further, on SARS-CoV-2 nsp13 [1] (ratio of IC50 values), the “gain in activity on unwinding with respect to the hit 4” value amounted to 27 fold. For the same molecule, in data set [3], the CC50 at 72 h is over 100 µM.
As to `CCOC(=O)/C(O)=C/C(=O)/C=C/c1cn(Cc2ccc(OC(F)(F)F)cc2)c2ccccc12` [6e], the half-maximal inhibitory concentration (IC50) is 5.66 ± 0.21 µM on SARS-CoV-2 nsp13 [1] (setting [7]) and 2.17 ± 0.26 µM on SARS-CoV-2 nsp13 [2] (setting [8]). Moreover, in data set [3], the CC50 at 72 h was over 100 µM.
Take `CCOC(=O)/C(O)=C/C(=O)c1cn(Cc2ccc(F)cc2)c2ccccc12` [8d, Ethyl (Z)-4-(1-(4-fluorobenzyl)-1H-indol-3-yl)-2-hydroxy-4-oxobut-2-enoate]: the IC50 at SARS-CoV-2 nsp13 [1] (Activity in enzyme assay IC50 Unwinding BSA-TCEP) is 1.73 ± 0.53 µM; against SARS-CoV-2 nsp13 [2] (Activity in enzyme assay IC50 ATPase BSA-TCEP), 8.7 ± 0.53 µM. The CC50 at 72 h in data set [3] is over 100 µM.
In the case of `CC(C)=Cn1cc(/C=C/C(=O)/C=C(\O)C(=O)O)c2ccccc21` [9c, (2Z,5E)-2-hydroxy-6-(1-(2-methylprop-1-en-1-yl)-1H-indol-3-yl)-4-oxohexa-2,5-dienoic acid], the 50% inhibitory concentration (IC50) at SARS-CoV-2 nsp13 [1] (setting [7]) is 1.56 ± 0.16 µM; at SARS-CoV-2 nsp13 [2] (setting [8]), over 30 µM. At SARS-CoV-2 nsp13 [2] (measured at 30 µM, read-out: Percentage of enzymatic residual activity (ATPase)), the remaining activity at 30 µM came out at 98.6%. Moreover, the CC50 at 72 h in data set [3] was over 100 µM.
Turning to `CCOC(=O)/C(O)=C/C(=O)/C=C/c1cn(CCC(C)C)c2ccccc12` [10f, Ethyl (2Z,5E)-2-hydroxy-6-(1-isopentyl-1H-indol-3-yl)-4-oxohexa-2,5-dienoate], the values for the IC50 on SARS-CoV-2 nsp13 [1] (setting [7]) and at SARS-CoV-2 nsp13 [2] (setting [8]) were 13.5 ± 0.25 µM and 6.27 ± 0.2 µM, respectively.
For `CC[C@@]1(O)C(=O)OCc2c1cc1n(c2=O)Cc2cc3ccccc3nc2-1` [Camptothecin, reference compound], the CC50 at 72 h in data set [3] worked out at 11.1 ± 0.16 µM.
As to `C=CCn1c(CSc2ccccc2[N+](=O)[O-])n[nH]c1=S` [SSYA10-001], the half-maximal inhibitory concentration (IC50) on SARS-CoV-2 nsp13 [5] (SARS-CoV-2 nsp13, read-out: IC50 vs unwinding) is 7.5 µM. Moreover, in the data set on SARS-CoV-2 (setting [9]), the half-maximal effective concentration (EC50) was 81 µM.
As for `CC(C)=CCc1c(O)cc(O)c2c(=O)cc(-c3ccc(O)cc3)oc12` [compound 2, licoflavone C], the 50% effective concentration (EC50) in the data set with SARS-CoV-2 (setting [9]) is over 100 µM.
On to `CC(C)=CCn1cc(/C=C/C(=O)/C=C(\O)C(=O)O)c2ccccc21` [compound 3], for which the concentration for a half-maximal effect (EC50) with MERS-CoV was 0.33 µM; with SARS-CoV-2 (setting [11]), 4.54 µM; in the data set on HCoV229E, 0.54 µM. Further, the IC50 at SARS-CoV-2 nsp13 [5] (setting [10]) was 9.51 µM; at SARS-CoV-2 nsp13 [6] it was 26.8 µM. In the data set with Vero E6-GFP cells, the CC50 was over 264 µM.
`O=C(/C=C(\O)C(=O)O)/C=C/c1cn(Cc2ccccc2)c2ccccc12` [compound 4]: the EC50 is 6.32 µM in the data set with MERS-CoV, 1.03 ± 0.24 µM with SARS-CoV-2 (setting [11]) and 1.83 µM with HCoV229E. The IC50 is 12.7 ± 4.9 µM on SARS-CoV-2 nsp13 [5] (setting [10]) and 12.8 ± 1.3 µM on SARS-CoV-2 nsp13 [6]. In addition, the CC50 in the data set with Vero E6-GFP cells is over 264 µM.
